In paper PMC3833878, “In Silico Molecular Comparisons of C. elegans and Mammalian Pharmacology Identify Distinct Targets That Regulate Feeding” (PLoS Biology, 2013):

Legend:
[1] = biological target: dopamine receptor D4 (Homo sapiens, UniProt P21917); test: Radioligand binding assay, 3H-risperidone binding to the dopamine D4 receptor
Description: (§1) Tachykinin, ghrelin, and calcium-sensing receptor activity were measured using a cell-based Ca flux assay by Multispan, Inc. (Hayward, California). Cholescystokinin A and B receptors were assayed for effects on cAMP production, and nicotinic acid receptor activity was measured in a cell-based assay of forskolin-stimulated cAMP production by Multispan, Inc. […], PP2A phosphatase activity assays were performed by CEREP (Celle l'Evescault, France) using PP2A from human erythrocytes. Phospholipase C from Bacillus cereus was assayed by CEREP, Inc. using glycero-phosphatidyl ethanolamine as a substrate, monitoring diacyl glycerol production. Radioligand binding assays for PPAR-α, γ, δ and the androgen receptor were performed by CEREP, Inc. CARNA Biosciences (Kobe, Japan) performed in vitro kinase activity assays using recombinant catalytic domains and measured phosphorylation of an Src-derived peptide for Flt-3 and phosphatidyl inositol for PI3KCA. Radioligand binding assays for the oxytocin receptor, D4 dopamine receptor, cannabinoid CB2 receptor, and angiotensin type I and II receptors were performed as described previously, as were cell-based activity assays for mGluR 1a, 2, 4, 5, 6, and 8 [60]–[62].
(§2) Supplementary file pbio.1001712.s001.tif: Figure S1 Dose-response measurements that validate SEA predictions for GPCRs. […]

[2] = biological target: androgen receptor (Homo sapiens, UniProt P10275); test: Radioligand binding assay, 3H-Mibolerone binding to the androgen receptor (CEREP)
Description: as §1, with “[60]-[62]. Supplementary file pbio.1001712.s003.tif: Figure S3 Dose-response relationships for compounds that bind nuclear hormone receptors. […]” for “[60]–[62].”

[3] = biological target: oxytocin receptor (Homo sapiens, UniProt P30559); test: Radioligand binding assay, 3H-oxytocin binding to the oxytocin receptor
Sequence of oxytocin receptor (P30559 whole entry): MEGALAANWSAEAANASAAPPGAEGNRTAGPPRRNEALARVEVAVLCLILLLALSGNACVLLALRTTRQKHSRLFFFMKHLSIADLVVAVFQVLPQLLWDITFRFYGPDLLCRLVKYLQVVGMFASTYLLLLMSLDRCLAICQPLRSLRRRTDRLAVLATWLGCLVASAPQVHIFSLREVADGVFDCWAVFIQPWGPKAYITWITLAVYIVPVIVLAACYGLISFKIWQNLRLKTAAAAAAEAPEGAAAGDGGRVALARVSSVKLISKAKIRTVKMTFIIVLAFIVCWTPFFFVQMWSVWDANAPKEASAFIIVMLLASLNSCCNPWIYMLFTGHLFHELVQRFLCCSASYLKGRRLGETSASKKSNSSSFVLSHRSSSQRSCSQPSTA
Description: as §1, §2

[4] = test system: wild-type C. elegans; test: Pharyngeal pumping assay; type: in vivo; conditions: for increase in pharyngeal pumping / exposure time after which the feeding elevating effect was notable: 10 µM; for increase in pharyngeal pumping: cultured 3 d from L1, long-term video (60 s) and short-term manual (10 s) measurements; for exposure time after which the feeding elevating effect was notable: naïve day 1 gravid adults; for EC50: Caenorhabditis elegans, read-out: EC50 of the dose-dependent increase in the pharyngeal pumping rate; for effect on the pharyngeal pumping rate: 10 µM versus 0.1% DMSO
Description: (§3) Compounds at 1,000× stock concentrations (0.1–10 mM) in DMSO or an equal volume of DMSO were diluted in a suspension of E. coli OP-50 (100 µl of a 3× concentrated overnight culture in LB broth) and absorbed as a single drop onto 3.5 cm plates containing 2.5 ml of NGM agar forming a well-defined lawn of bacteria. For developmental exposures, 20–30 synchronized first larval stage C. elegans derived from alkaline hypochlorite treatment of gravid adults were applied to the preseeded plates and cultured until assay at mid-L4 stage (2 d, 20°C) or as day 1 gravid adults (3 d, 20°C). For naïve adult exposures, synchronized first larval stage animals were cultured on NGM-agar plates seeded with E. coli OP-50 for 3 d at 20°C, then transferred to assay plates, and pumping was assayed 1 to 16 h later. Comparisons between vehicle-treated and compound-treated animals were always performed between animals at the same developmental stage and same exposure time. Pharyngeal pumping was counted by live observation at 115–200× magnification using a stereo microscope and recorded at 10 s intervals using a manually controlled digital cell counter. Alternatively, C. elegans pumping was recorded for longer intervals (30–60 s) using bright-field time-lapse microscopy at 120× magnification with a 20 images per second acquisition rate. The resulting movies were analyzed manually at a playback rate of 10 images per second.
(§4) Significance was determined by one-way ANOVA applying a Dunnett's posttest when comparing multiple treatments to a single control and a Bonferroni posttest when comparing the more than two treatments against one another. For pairwise nonrepeated measured comparisons, a student's t test was used. To express data as a percentage of control, the pumping rates of compound-treated animals were divided by the mean pumping rate of the DMSO-treated wild-type animals measured in the same experiment, unless indicated otherwise. Error bars on the control samples indicate the variation around that mean, which is utilized in all statistical calculations.

[5] = test system: gnrr-1(ok238) mutant C. elegans; test: Pharyngeal pumping assay, compound on high-feeding mutant; type: in vivo; conditions: to C. elegans gnrr-1 (F54D7.3), homolog of human Oxtr
Description: as §3, §4
(§5) The pumping rates are expressed as a percentage of the mutant’s pumping rate on DMSO, the vehicle control. p-values were calculated relative to DMSO treatment of each mutant by one-way ANOVA using Dunnett’s multiple comparison test.

[6] = test system: C. elegans; parameters: method as in earlier work; conditions: earlier phenotypic screen ref 11; cited from earlier work
[7] = biological target: T1, flt-3 receptor (CD135) (Homo sapiens, UniProt P36888); test: In vitro kinase activity assay, recombinant Flt-3 receptor catalytic domain, srctide phosphorylation (CARNA); type: biochemical
T1 construct: Flt-3 receptor catalytic domain (amino acids 564–993); purchased CARNA Biosciences (Kobe, Japan)
T1 sequence (P36888 564-993): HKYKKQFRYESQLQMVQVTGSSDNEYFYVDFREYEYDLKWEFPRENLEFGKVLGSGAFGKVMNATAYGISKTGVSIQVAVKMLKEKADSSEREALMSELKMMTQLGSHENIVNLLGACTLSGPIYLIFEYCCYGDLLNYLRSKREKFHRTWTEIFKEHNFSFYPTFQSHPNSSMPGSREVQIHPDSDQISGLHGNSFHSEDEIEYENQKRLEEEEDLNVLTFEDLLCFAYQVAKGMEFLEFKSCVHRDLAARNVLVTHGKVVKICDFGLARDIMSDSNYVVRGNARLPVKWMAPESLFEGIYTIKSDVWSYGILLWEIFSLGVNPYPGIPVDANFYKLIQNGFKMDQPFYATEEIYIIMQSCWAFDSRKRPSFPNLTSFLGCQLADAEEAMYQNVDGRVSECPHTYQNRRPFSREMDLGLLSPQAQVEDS
Description: as §1, with “Radioligand binding assays for the oxytocin receptor, D4 dopamine receptor, cannabinoid CB2 receptor, and angiotensin type I and II receptors were performed as described previously, as were cell-based activity assays for mGluR 1a, 2, 4, 5, 6, and 8 [60]–[62].” left out
(§6) Supplementary file pbio.1001712.s002.tif: Figure S2 Dose-dependent inhibitory activity for compounds predicted by SEA to inhibit kinases. (A–B) Varying concentrations of J6 and L10 were incubated with full-length recombinant human PI3KCA and ATP (50 µM) for 5 h and the phosphorylation level of the substrate phosphatidylinositol was measured. […]

[8] = test system: ver-3(ok891) mutant C. elegans; test: Pharyngeal pumping assay, compound on high-feeding mutant; type: in vivo; conditions: to C. elegans ver-3 (F59F3.1), homolog of human Flt-3 receptor
Description: as §3, §4, §5

[9] = biological target: T2, PI3K p110α (Homo sapiens, UniProt P42336); test: In vitro kinase activity assay, recombinant PI3KCA, phosphatidylinositol phosphorylation (CARNA); type: biochemical; conditions: marked with footnote d in Figure 2; 50 µM ATP, 5 h
T2 construct: full-length recombinant human PI3KCA; purchased CARNA Biosciences (Kobe, Japan)
Description: as §1, with “Radioligand binding assays for the oxytocin receptor, D4 dopamine receptor, cannabinoid CB2 receptor, and angiotensin type I and II receptors were performed as described previously, as were cell-based activity assays for mGluR 1a, 2, 4, 5, 6, and 8 [60]–[62].” left out
as §6

[10] = biological target: T3, PPAR-γ (Homo sapiens, UniProt P37231); test: Radioligand binding assay, 3H-Rosiglitazone binding to PPAR-γ (CEREP)
T3 construct: CEREP, Inc. (assay run by the contract laboratory)
Description: as §1
Supplementary file pbio.1001712.s003.tif: Figure S3 Dose-response relationships for compounds that bind nuclear hormone receptors. […]

[11] = biological target: T4, mglur-8 (Rattus norvegicus, UniProt P70579); test: Cell-based mGluR-8 activity assay, CHO cells stimulated with 1 µM L-AP4, concentration response
T4 construct: expressed in transfected cells; host or cells: CHO cells
Description: as §1, §2

[12] = biological target: T5, MGLUR1a (Homo sapiens, UniProt Q13255); test: Cell-based mGluR activity assay; conditions: 10 µM B16
T5 construct: expressed in transfected cells
T5 sequence (Q13255 19-1194): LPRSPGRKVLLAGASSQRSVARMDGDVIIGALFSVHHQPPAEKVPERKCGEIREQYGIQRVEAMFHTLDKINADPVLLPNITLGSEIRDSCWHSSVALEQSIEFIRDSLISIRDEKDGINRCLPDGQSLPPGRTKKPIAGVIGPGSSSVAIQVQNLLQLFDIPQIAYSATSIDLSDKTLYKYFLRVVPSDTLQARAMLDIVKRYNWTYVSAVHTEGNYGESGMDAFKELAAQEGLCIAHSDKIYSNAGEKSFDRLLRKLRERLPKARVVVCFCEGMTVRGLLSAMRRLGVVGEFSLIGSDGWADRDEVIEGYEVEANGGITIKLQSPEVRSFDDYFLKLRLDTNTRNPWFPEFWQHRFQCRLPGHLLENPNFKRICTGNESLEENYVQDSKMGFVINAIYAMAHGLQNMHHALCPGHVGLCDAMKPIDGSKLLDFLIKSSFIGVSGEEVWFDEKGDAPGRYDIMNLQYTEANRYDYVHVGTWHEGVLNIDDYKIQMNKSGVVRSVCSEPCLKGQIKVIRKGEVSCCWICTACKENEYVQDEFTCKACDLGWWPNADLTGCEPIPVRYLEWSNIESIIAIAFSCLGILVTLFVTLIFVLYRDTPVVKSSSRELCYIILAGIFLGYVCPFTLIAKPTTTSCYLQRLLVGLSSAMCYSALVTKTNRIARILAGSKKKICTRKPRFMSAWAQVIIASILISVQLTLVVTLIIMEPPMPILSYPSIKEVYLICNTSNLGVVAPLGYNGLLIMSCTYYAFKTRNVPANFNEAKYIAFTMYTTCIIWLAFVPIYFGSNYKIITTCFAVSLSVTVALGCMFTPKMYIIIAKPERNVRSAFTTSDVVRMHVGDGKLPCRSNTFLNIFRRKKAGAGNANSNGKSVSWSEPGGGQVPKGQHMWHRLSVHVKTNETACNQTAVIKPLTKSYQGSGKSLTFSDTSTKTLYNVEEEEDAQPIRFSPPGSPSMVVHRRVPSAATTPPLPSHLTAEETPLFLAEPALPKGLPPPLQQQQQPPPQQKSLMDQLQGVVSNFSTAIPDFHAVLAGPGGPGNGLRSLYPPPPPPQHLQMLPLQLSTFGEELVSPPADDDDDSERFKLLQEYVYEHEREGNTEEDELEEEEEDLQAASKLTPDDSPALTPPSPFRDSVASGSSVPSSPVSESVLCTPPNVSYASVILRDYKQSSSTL
Description: as §1
(§7) Table S2. Activity of 10 µM B16 on human metabotropic glutamate receptors.
(§8) ^a Data are normalized to the maximum response of cells treated with 1 mM glutamate or 0.1 mM AP4 alone.
(§9) ^b Percent difference in maximum activity of cells treated with glutamate or AP4 with B16 vehicle versus concurrent treatment with 10 µM B16.

[13] = biological target: T6, MGLUR2 (Homo sapiens, UniProt Q14416); test: Cell-based mGluR activity assay; conditions: 10 µM B16
T6 construct: expressed in transfected cells
T6 sequence (Q14416 19-872): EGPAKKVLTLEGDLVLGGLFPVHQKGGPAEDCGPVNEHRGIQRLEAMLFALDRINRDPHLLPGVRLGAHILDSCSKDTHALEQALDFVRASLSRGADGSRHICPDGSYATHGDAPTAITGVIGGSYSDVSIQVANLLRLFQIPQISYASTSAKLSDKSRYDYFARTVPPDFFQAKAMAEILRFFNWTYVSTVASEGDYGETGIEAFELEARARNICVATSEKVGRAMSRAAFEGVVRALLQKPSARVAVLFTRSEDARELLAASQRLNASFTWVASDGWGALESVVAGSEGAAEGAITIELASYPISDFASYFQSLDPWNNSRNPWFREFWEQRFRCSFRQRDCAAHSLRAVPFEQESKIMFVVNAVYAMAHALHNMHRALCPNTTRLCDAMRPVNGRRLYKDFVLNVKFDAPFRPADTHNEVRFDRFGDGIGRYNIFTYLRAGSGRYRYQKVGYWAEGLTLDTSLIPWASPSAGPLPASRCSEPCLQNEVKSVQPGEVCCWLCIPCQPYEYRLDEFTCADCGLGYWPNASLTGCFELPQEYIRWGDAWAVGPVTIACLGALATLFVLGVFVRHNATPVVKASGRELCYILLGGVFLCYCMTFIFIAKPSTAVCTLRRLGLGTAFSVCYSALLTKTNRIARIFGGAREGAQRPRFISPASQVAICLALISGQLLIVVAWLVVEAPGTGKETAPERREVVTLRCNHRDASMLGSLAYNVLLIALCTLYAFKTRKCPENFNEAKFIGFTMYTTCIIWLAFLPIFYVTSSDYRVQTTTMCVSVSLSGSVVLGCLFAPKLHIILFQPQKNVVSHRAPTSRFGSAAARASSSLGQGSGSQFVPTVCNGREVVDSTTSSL
Description: as §1, §7, §8, §9

[14] = biological target: T7, MGLUR4 (Homo sapiens, UniProt Q14833); test: Cell-based mGluR activity assay; conditions: 10 µM B16
T7 construct: expressed in transfected cells
T7 sequence (Q14833 33-912): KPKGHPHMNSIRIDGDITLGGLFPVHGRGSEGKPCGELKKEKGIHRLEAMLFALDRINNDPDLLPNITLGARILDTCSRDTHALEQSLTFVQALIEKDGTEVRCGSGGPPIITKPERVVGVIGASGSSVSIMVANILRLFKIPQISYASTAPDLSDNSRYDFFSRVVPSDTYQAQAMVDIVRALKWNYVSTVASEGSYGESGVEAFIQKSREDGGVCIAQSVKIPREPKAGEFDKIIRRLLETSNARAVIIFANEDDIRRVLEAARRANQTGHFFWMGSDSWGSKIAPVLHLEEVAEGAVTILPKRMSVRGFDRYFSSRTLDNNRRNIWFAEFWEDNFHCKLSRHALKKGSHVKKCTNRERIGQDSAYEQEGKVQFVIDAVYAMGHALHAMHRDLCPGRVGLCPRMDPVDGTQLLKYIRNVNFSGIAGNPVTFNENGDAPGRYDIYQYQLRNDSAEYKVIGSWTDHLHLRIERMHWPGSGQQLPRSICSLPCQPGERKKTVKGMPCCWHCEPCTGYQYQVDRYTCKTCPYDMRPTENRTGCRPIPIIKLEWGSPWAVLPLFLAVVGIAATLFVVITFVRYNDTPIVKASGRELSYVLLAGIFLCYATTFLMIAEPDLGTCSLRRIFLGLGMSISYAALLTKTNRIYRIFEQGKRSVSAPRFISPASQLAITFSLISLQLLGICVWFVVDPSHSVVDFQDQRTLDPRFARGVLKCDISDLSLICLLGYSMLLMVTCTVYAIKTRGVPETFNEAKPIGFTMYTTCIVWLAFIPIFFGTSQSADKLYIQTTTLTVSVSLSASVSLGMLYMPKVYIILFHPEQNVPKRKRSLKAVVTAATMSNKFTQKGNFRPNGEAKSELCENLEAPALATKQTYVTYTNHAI
Description: as §1, §7, §8, §9

[15] = biological target: T8, MGLUR5 (Homo sapiens, UniProt P41594); test: Cell-based mGluR activity assay
T8 construct: expressed in transfected cells
T8 sequence (P41594 21-1212): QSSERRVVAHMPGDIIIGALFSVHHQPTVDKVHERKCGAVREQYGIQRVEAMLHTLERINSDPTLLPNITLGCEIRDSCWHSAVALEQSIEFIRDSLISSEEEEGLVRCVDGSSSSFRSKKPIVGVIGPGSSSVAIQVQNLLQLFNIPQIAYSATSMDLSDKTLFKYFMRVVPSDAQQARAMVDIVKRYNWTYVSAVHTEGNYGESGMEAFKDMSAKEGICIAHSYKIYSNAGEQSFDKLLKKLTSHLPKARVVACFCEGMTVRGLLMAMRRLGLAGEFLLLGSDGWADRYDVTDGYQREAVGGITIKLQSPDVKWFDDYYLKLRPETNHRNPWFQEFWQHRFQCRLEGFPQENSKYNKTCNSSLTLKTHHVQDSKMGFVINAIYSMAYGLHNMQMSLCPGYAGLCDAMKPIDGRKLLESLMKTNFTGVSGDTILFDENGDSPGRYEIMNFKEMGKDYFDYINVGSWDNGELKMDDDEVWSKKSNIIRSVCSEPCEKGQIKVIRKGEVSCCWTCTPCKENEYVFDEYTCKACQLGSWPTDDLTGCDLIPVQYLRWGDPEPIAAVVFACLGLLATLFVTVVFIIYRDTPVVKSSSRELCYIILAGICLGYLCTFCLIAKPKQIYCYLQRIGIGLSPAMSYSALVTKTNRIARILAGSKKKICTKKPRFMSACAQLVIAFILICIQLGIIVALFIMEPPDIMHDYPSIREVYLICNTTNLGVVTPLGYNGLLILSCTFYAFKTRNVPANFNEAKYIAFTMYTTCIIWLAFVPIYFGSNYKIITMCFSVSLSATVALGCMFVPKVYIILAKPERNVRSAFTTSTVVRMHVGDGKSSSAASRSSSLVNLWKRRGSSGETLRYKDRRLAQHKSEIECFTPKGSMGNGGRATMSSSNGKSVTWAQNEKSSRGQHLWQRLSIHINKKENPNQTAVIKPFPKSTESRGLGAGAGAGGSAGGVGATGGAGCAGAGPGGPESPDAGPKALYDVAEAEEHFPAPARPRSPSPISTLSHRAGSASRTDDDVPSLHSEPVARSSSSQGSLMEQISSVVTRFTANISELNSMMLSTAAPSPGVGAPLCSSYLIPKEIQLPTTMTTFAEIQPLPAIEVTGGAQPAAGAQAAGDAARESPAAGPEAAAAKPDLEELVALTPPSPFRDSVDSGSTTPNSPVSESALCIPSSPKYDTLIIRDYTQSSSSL
Description: as §1, §7, §8, §9

[16] = biological target: T9, MGLUR6 (Homo sapiens, UniProt O15303); test: Cell-based mGluR activity assay; conditions: 10 µM B16
T9 construct: expressed in transfected cells
Description: as §1, §7, §8, §9

[17] = test system: MGLUR8; test: Cell-based mGluR activity assay; parameters: species or system human; conditions: 10 µM B16
Description: as §1
Table S2. Activity of 10 µM B16 on human metabotropic glutamate receptors. […]

[18] = test system: mgl-2(tm355) mutant C. elegans; test: Pharyngeal pumping assay, compound on high-feeding mutant; type: in vivo; conditions: to C. elegans mgl-2 (F45H11.4), homolog of human mGluR-8
Description: as §3, §4, §5

[19] = wild-type, serial 3-fold dilutions
[20] = normalized to the maximum response of cells treated with 1 mM glutamate or 0.1 mM AP4 alone
[21] = percent difference in maximum activity of cells treated with glutamate or AP4 with vehicle versus B16

O=C(CN1CCN(c2ccccc2)CC1)Nc1cc(C(F)(F)F)ccc1Cl [G7]
Ki [1]: 1900 nM

CC12C(=O)N(c3ccc(Cl)c(Cl)c3)C(=O)C1C1C=CC2C1 (centres unmarked) [G6]
Ki [2]: 8.6 nM

COc1ccc(N(CC(=O)NCc2ccco2)S(=O)(=O)c2ccccc2)cc1Cl [F15]
Ki [3]: 1800 nM
increase in pharyngeal pumping [4]: 7%–12%
exposure time after which the feeding elevating effect was notable [4]: ≤ 1 h
EC50 [4, 19]: 400 nM
effect on the pharyngeal pumping rate ([4]; wild-type): increased
Pharmacological relationship [5]: antagonist
Nile Red staining [6]: decreased

CC1CCc2c(sc(NC(=O)c3cccs3)c2C(N)=O)C1 (centres unmarked) [K9]
activity on the predicted mammalian target Flt-3 kinase in vitro ([7]; Table S1 (not readable)): fail to modulate
effect on feeding rate [4, 19]: dose-dependent increase

Cc1sc(NC(=O)c2ccccc2Br)c(C(N)=O)c1C [D20]
Ki ([7]; marked with footnote d in Figure 2, 100 µM ATP, 1 h): 169 nM
increase in pharyngeal pumping [4]: 7%–12%
exposure time after which the feeding elevating effect was notable [4]: ≤ 1 h
EC50 [4, 19]: 600 nM
effect on the pharyngeal pumping rate ([4]; wild-type): increased
Pharmacological relationship [8]: antagonist
Nile Red staining [6]: decreased

O=C1NC(=O)/C(=C\c2ccc(-c3cccc(Br)c3)o2)S1 [L10]
Ki [9]: 2900 nM

O=C(Nc1ccccc1C(=O)O)c1ccc(Br)c(S(=O)(=O)N2CCCCC2)c1 [I10]
Ki [10]: 1300 nM

Cc1nc(N2CCOCC2)c2oc3ccccc3c2n1 [J6]
Ki [9]: 4600 nM

Cc1cc(C)c2c(N)c(C(=O)Nc3ccccn3)sc2n1 [B16]
Ki [11]: 9800 nM
% agonism [12, 20]: -4%
inhibition at 10 µM [12, 21]: 24%
% agonism [13, 20]: 0%
inhibition at 10 µM [13, 21]: 12%
% agonism [14, 20]: -8%
inhibition at 10 µM [14, 21]: 4%
% agonism ([15]; 10 µM B16, normalized to the maximum response of cells treated with 1 mM glutamate or 0.1 mM AP4 alone): -14%
inhibition at 10 µM ([15]; 10 µM B16, percent difference in maximum activity of cells treated with glutamate or AP4 with vehicle versus B16): 11%
Ki ([15]; Figure 2): > 30000 nM
% agonism [16, 20]: 13%
inhibition at 10 µM [16, 21]: -17%
% agonism [17, 20]: -3%
% inhibition [17, 21]: 49%
increase in pharyngeal pumping [4]: 7%–12%
exposure time after which the feeding elevating effect was notable [4]: ≤ 1 h
effect on the pharyngeal pumping rate ([4]; wild-type): increased
Pharmacological relationship [18]: antagonist
Nile Red staining [6]: decreased

CC[C@H](NC(=O)c1c(C)c(-c2ccccc2)nc2ccccc12)c1ccccc1 [SB222200, reference compound]
effect on feeding ([4]; wild-type, 200 nM): increased feeding
